PMC8575457, “Molecular reconstruction of recurrent evolutionary switching in olfactory receptor specificity” (eLife, 2021)
Positions count from the first letter of the chain named.

Legend:
Assay in all cases: single sensillum extracellular recording, Ir decoder neuron
Conditions in all cases: 1% v/v odor in water, 10 ul, 500 ms pulse; agonist
DmelIr75a [1] = molecular target: T1, DmelIr75a (Drosophila melanogaster, UniProt Q9VVL1, T289S/Q536K)
T1 construct: gene Ir75a
T1 sequence (Q9VVL1 1-629 T289S/Q536K): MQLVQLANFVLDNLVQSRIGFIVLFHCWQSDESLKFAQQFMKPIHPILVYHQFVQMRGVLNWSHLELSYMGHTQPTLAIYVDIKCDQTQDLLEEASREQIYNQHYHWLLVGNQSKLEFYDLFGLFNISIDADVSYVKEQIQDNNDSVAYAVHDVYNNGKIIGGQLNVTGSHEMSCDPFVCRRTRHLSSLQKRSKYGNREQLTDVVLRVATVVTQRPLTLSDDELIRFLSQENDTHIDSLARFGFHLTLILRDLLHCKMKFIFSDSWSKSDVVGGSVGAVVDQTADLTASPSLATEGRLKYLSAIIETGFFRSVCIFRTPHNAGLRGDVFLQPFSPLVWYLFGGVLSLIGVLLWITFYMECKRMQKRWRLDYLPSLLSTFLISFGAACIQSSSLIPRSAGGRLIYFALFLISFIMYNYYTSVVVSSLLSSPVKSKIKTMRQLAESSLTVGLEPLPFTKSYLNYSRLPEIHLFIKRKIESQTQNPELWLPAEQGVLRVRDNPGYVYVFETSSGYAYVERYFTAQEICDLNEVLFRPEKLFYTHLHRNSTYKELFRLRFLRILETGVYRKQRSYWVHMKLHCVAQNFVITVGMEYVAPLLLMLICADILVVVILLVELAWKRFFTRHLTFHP
T1 sequence (Q9W365 18-936 partner): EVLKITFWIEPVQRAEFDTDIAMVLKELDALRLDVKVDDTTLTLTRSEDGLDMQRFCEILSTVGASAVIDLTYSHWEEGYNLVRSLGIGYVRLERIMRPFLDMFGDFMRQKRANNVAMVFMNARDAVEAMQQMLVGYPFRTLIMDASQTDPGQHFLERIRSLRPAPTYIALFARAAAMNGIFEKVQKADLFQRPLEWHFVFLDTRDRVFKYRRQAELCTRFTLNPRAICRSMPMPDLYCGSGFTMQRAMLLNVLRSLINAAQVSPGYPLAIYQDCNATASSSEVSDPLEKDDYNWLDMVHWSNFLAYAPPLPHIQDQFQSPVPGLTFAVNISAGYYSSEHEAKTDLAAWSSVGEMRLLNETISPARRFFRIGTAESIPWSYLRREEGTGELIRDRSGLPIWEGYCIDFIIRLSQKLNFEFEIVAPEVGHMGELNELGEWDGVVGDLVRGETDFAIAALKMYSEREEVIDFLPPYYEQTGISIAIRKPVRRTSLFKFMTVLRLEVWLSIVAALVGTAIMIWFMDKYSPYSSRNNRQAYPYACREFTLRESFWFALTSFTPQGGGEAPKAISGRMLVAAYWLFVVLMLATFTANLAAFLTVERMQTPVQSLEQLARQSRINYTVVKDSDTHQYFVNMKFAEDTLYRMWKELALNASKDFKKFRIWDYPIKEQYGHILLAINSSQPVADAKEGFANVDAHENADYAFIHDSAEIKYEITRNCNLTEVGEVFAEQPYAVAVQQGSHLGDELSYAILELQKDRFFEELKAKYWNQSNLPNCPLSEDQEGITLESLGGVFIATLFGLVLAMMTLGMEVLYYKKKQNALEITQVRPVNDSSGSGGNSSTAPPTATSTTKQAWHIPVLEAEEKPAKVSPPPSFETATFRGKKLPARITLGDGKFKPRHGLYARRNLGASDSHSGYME

DmelIr75b^DsecS1 = molecular target: T2, DmelIr75b^DsecS1 (Drosophila melanogaster, UniProt A0A1S6EMU4, I210K/M217L/K220Q/N259S/I277M/F289L/Q291K/T523S, form not given); type: cell-based
T2 construct: gene IR75b; UAS transgene in Ir decoder neuron; with Ionotropic receptor 8a (D. melanogaster, endogenous)
T2 sequence (A0A1S6EMU4 1-609 I210K/M217L/K220Q/N259S/I277M/F289L/Q291K/T523S): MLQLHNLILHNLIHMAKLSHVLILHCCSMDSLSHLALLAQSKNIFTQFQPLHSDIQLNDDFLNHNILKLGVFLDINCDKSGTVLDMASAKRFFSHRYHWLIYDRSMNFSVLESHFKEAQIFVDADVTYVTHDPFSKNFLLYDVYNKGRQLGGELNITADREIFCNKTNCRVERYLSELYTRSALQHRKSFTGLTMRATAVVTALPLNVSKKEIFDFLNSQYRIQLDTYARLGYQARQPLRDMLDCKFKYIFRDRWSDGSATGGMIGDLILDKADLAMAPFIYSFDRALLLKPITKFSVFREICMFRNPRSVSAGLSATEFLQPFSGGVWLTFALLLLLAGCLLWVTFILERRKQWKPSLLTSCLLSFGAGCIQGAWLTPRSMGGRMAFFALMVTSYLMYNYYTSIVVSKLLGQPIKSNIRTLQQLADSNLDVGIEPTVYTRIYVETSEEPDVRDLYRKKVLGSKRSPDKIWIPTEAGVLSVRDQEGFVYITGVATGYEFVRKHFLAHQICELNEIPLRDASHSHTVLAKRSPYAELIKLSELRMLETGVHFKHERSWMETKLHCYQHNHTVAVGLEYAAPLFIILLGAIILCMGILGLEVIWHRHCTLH
T2 sequence (Q9W365 18-936 partner): T1 sequence (Q9W365 18-936 partner)

DmelIr75a [2] = molecular target: T3, DmelIr75a (Drosophila melanogaster, UniProt Q9VVL1, T289S/Q536K/F538L); type: cell-based
T3 construct: gene Ir75a; full-length cDNA, UAS transgene (attP40) expressed in D. melanogaster Ir decoder neuron (Ir84a-Gal4, Ir84a mutant) with endogenous Ir8a; predicted heterotetramer; with Ionotropic receptor 8a (D. melanogaster, endogenous)

DmelIr75b = molecular target: T4, DmelIr75b (Drosophila melanogaster, UniProt A0A1S6EMU4)
T4 construct: gene IR75b
T4 sequence (A0A1S6EMU4 1-609): T2 sequence (A0A1S6EMU4 1-609 I210K/M217L/K220Q/N259S/I277M/F289L/Q291K/T523S) with K210I, L217M, Q220K, S259N, M277I, L289F, K291Q, S523T
T4 sequence (Q9W365 18-936 partner): T1 sequence (Q9W365 18-936 partner)

For `CCCC(=O)O` [C4, butyric acid], the “solvent-corrected response (spikes/s)” value (DmelIr75a [1]) was “broadly tuned receptor that responds maximally (albeit weakly) to C2, C3, and C4”, the “solvent-corrected response (spikes/s)” value (DmelIr75b^DsecS1) was “this receptor still has robust sensitivity to C4” and the “solvent-corrected response (spikes/s)” value (DmelIr75a [2]) was “produced a receptor that faithfully recapitulated the response properties of DsecIr75a”. For the same molecule, the “solvent-corrected response (spikes/s)” value (DmelIr75b) was “still has robust sensitivity to C4, like DmelIr75b but unlike DsecIr75b”.
